These results are taken from ChEMBL document CHEMBL1201862, “PubChem BioAssay data set” (2004).

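Five concentrations, 48 hours, 96-well plates. The concentration for 50% growth inhibition is given as GI50.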 Calls of active or inactive are those of the source. Rule as the data show it: active = GI50 up to about 1.1 µM and inactive = higher. A value given as a limit tells only on which side of the number the result lay.

Holding throughout (experiment): DTP human tumour cell line panel, 48 h
Assay [1] concerns COLO 205.
For assay [2], the system named is BT-549.
In assay [3] the test system is OVCAR-5.
Assay [4] deals with SNB-19.
Assay [5] deals with 786-0.
Assay [6] deals with RPMI-8226.
In assay [7] the test system is SF-295.
For assay [8], the system named is OVCAR-3.
The test system of assay [9] is MDA-MB-435.
In assay [10] the test system is HT-29.
Assay [11] has as its system DU-145.
Assay [12] relates to HL-60.
Assay [13] relates to M14.
In assay [14] the test system is UO-31.
The test system of assay [15] is UACC-257.
Assay [16] relates to PC-3.
Assay [17] relates to K562.
Assay [18] relates to HCC 2998.
The test system of assay [19] is A498.

As usually defined, the GI50 is the concentration that inhibits growth by half. Regarding `O=S1(=O)OCCCOS(=O)(=O)C1(Br)Br`, the GI50 in assay [1], in assay [2], in [3], in assay [4], in assay [5] and in assay [6] was > 100 µM (inactive) in each case. The GI50 in assay [7], in [8], in [9], in [10], in [11] and in [12] was > 100 µM (inactive) each time. The GI50 in assay [13], in assay [14], in assay [15] and in [16] was > 100 µM (inactive) throughout.
For the compound `COc1ccc(C2CC(=O)Oc3ccccc3O2)cc1` (stereo not given), the GI50 in assay [1], in assay [2], in [4], in assay [5], in [6] and in [17] was > 100 µM (inactive) each time. For the same compound, the GI50 in assay [7] is > 100 µM (inactive); in assay [8], > 100 µM (inactive); in assay [18], > 100 µM (inactive); in assay [9], 70.5 µM (inactive); in assay [10], > 100 µM (inactive); in assay [11] it was > 100 µM (inactive). In addition, the GI50 in [12] was 42.8 µM (inactive); in assay [14], 88.5 µM (inactive); in [15] it was > 100 µM (inactive); in assay [16] it was > 100 µM (inactive).
Turning to `CC12CC(c3ccccc3O1)C(C(=O)Nc1ccc(Cl)cc1Cl)C(=O)N2` (stereo not given), the GI50 in [1] is 64.6 µM (inactive); in [2], 89.3 µM (inactive); in assay [3], 29.6 µM (inactive); in [4], 36.7 µM (inactive); in [5], 19.7 µM (inactive); in assay [6] it was 44 µM (inactive). Further, the GI50 was 38.3 µM (inactive) in assay [17]; 48.2 µM (inactive) in [7]; 38 µM (inactive) in [8]; 49.1 µM (inactive) in assay [18]; 67.1 µM (inactive) in assay [9]; 40.1 µM (inactive) in [10]. Further, the GI50 is 27.6 µM (inactive) in assay [11]; 3.34 µM (inactive) in assay [12]; 18 µM (inactive) in assay [13]; 19.2 µM (inactive) in [14]; > 100 µM (inactive) in [15]; 44 µM (inactive) in assay [16].
Turning to `COc1ccc(OC)c(NCC(=O)Nn2cnc3ccc(S(=O)(=O)Nc4cc(OC)ccc4OC)cc3c2=O)c1`, the GI50 in assay [1] was > 100 µM (inactive); in assay [2], > 100 µM (inactive); in assay [3] it was > 100 µM (inactive); in assay [4], > 100 µM (inactive); in assay [5], > 100 µM (inactive); in assay [17], 44.3 µM (inactive). For the same compound, the GI50 in assay [7] is 70.3 µM (inactive); in assay [8], > 100 µM (inactive); in [18], 37.2 µM (inactive); in assay [9], 29.5 µM (inactive); in assay [10] it was 45.5 µM (inactive); in [11], > 100 µM (inactive). Besides, the GI50 in [12] was 16.2 µM (inactive); in assay [13] it was > 100 µM (inactive); in assay [14], 75.7 µM (inactive); in [15], 82.6 µM (inactive); in assay [16], 37.5 µM (inactive).
On to `COc1ccccc1C1(c2c(OC(C)C)c(=O)c2=O)SCCCS1`, for which the GI50 in assay [1] is > 100 µM (inactive); in assay [2] it was 72.6 µM (inactive); in assay [3], > 100 µM (inactive); in [4], > 100 µM (inactive); in [5], > 100 µM (inactive); in [7], > 100 µM (inactive). Also, the GI50 in assay [8], in [9], in [10], in assay [11], in assay [12] and in assay [13] was > 100 µM (inactive) each time. Also, the GI50 in [19], in assay [14], in assay [15] and in assay [16] was > 100 µM (inactive) throughout.
In the case of `CN1N=C(c2ccccc2)c2cc(Cl)ccc2N=C1N/N=C/c1ccc(N(C)C)cc1`, the GI50 was > 100 µM (inactive) in assay [1]; > 100 µM (inactive) in assay [2]; > 100 µM (inactive) in assay [4]; > 100 µM (inactive) in assay [5]; 70.5 µM (inactive) in assay [6]; 64.3 µM (inactive) in assay [17]. Moreover, the GI50 in assay [7], in [8], in [18], in assay [9], in assay [10] and in [11] was > 100 µM (inactive) throughout. Besides, the GI50 in assay [12] is 39.6 µM (inactive); in [13], > 100 µM (inactive); in assay [14] it was > 100 µM (inactive); in assay [15], > 100 µM (inactive); in assay [16], 58.5 µM (inactive).
As to `CC[C@@H]1/C=C/C=C/C[C@H](C)[C@@H](O)[C@](C)(O)C(=O)[C@H](C)[C@@H](O)[C@H](C)C(=O)[C@H](C)[C@@H](O)[C@H](C)/C=C/C(=O)O[C@H]2[C@@H](C)[C@@H](CC1)O[C@@]1(CC[C@@H](C)[C@@H](CC(C)O)O1)[C@@H]2C` (stereo not given in full), the GI50 was < 0.01 µM (active) in assay [1]; 1.52 µM (inactive) in assay [2]; 1.68 µM (inactive) in assay [3]; < 0.01 µM (active) in assay [4]; 1.85 µM (inactive) in assay [5]; < 0.0162 µM (active) in assay [6]. Also, the GI50 in [17] is < 0.01 µM (active); in [7], < 0.01 µM (active); in assay [18], 1.52 µM (inactive); in [9], 1.52 µM (inactive); in assay [10], 1.36 µM (inactive); in [11], 1.88 µM (inactive). The GI50 in [12] was < 0.01 µM (active); in [13], 1.24 µM (inactive); in assay [14] it was 0.0307 µM (active); in [15], < 0.01 µM (active); in assay [16], < 0.01 µM (active).
`N[C@@H]1CCN(c2c(F)cc3c(=O)c(C(=O)O)cn4c3c2Oc2cc3c(ccc5ccccc53)cc2-4)C1`: the GI50 in assay [1] is 4.45 µM (inactive); in [2], 4.03 µM (inactive); in [3], 13.9 µM (inactive); in assay [4], 3.3 µM (inactive); in assay [5], 1.55 µM (inactive); in [6], 4.3 µM (inactive). Also, the GI50 in assay [17] was 2.54 µM (inactive); in assay [7] it was 3.68 µM (inactive); in assay [8], 5.73 µM (inactive); in assay [9], 3.24 µM (inactive); in assay [10] it was 0.585 µM (active); in assay [11], 3.28 µM (inactive). For the same compound, the GI50 was 7.14 µM (inactive) in assay [12]; 8.79 µM (inactive) in [13]; 4.83 µM (inactive) in assay [19]; 5.2 µM (inactive) in assay [14]; 0.78 µM (active) in assay [15]; 2.34 µM (inactive) in [16].
